The record followed here is US8865672B2, “Prevention of tissue ischemia and related methods” (The United States of America, as represented by the …, priority 2006, dated 2014).

One data set deals with HAVSMC. As to the kind of experiment: 3D collagen matrix contraction assay, human aortic VSMC. Type of data set: cell-based. Conditions: for TSP1 block of NO relaxation of FCS-induced gel contraction: human aortic VSMC pretreated with 10 μM morpholino. The procedure:
Type I collagen gel (3 mg/ml) with 10×M199 (Gibco, Grand Island, N.Y.) at a 10:1 ratio of collagen to medium was prepared, pH balanced with NaOH and seeded with either HAVSMC or VSMC harvested from aortic segments from C57B16 WT or TSP1 null mice (50,000 cells in 75 μl of gel/well) and aliquoted to 96-well plates (Nunc, Denmark). Plates were incubated for 12 h 37° C. and 5% CO2 allowing for gelation and cell spreading, gently released from the well walls and incubated in serum and additive deficient growth medium with 0.1% BSA in the presence of the indicated treatment agents for 10 h. Contraction was determined by measuring the diameter in perpendicular planes (x, y) of each disk, an average obtained and surface area calculated as (d/2)^2π. Experiments were performed in triplicate. Results represent the mean±SD of at least three separate experiments.
(§1) Human aortic VSMC were plated onto 12-well culture plates (Nunc) at a density of 5×10^4 cells/well in SM-GM+2% FCS and cultured until approximately 90% confluent. A translation-blocking antisense morpholino oligonucleotide complementary to human and murine CD47 ([…]; SEQ ID NO: 21) and a five-base mismatch control (CGTgACAGcCAcGACCgACTGCgCA; SEQ ID NO: 22) were obtained from GeneTools (Philomath, Oreg.). Cultured cells were treated as per the manufacturer's recommendation with morpholinos (10 μM) and utilized within 48 hours of treatment.

For a further data set, the system named is CD47. Put plainly: Western analysis of CD47 in HUVEC. Type of data set: cell-based, human. To be noted: morpholino 0.1-10 μM, 48 h. The procedure: HUVEC were plated in 12-well culture plates (5×10^4 cells/well) (Nunc, Denmark) in full growth medium and treated over 48 h with indicated doses of CD47 and control morpholino. Cells were subsequently washed twice with PBS and lysed immediately in 1×SDS sample buffer containing 10 µg/mL leupeptin, […] aprotinin, 1 mM Na3VO4, and 40 mM NaF. Lysates prepared in the SDS sample buffer described above were electrophoresed in 4-12% BisTris NuPAGE gels and transferred to PVDF membranes prior to immunoblotting with a monoclonal antibody to CD47 (clone B6H12, Lab Visions, Inc, Fremont, Calif.). The membrane was stripped and reprobed with a monoclonal antibody against β-actin (Sigma-Aldrich, St. Louis, Mo.).

Another data set relates to human aortic VSMC. As to the kind of experiment: Intracellular cGMP in human aortic VSMC after morpholino. Type of data set: cell-based. To be noted: for TSP1 inhibition of NO-driven cGMP accumulation: human aortic VSMC pre-treated with morpholino. The procedure: as §1
cGMP was determined in human aortic VSMC via immunoassay as described (Isenberg et al., Blood 2006; Example 2). In some situations cells were pretreated with a CD47 or control morpholino prior to assay.

The subject of data set [1] is random myocutaneous flaps in mice. Put plainly: Random myocutaneous (McFarlane) flap model. The format is in vivo, mouse. As for the experimental part:
WT and TSP1 null mice were matched for sex and age. Under isoflurane inhalation anesthesia 1×2 cm random myocutaneous flaps were raised. Where indicated, animals received either L-NAME (0.5 mg/ml) or ISDN (1 mg/ml) ad libitum in drinking water during the post-operative period. On postoperative day 7, the animals were again anesthetized with inhalation isoflurane and flaps evaluated. Viable and necrotic areas of the flaps were determined by color, refill, eschar, and the pin-prick test. Outlines of viable and nonviable areas were traced using transparent film and the area of flap necrosis versus total flap area determined as described (Yu et al., Proc Natl Acad Sci USA 102:10999-11004, 2005).
Wild type, TSP1 null, CD36 null and CD47 null mice were matched for sex and age underwent random dorsal myocutaneous flaps as described (Isenberg et al., Blood 2006; Example 2) and tissue harvested on postoperative day 7.
The necrotic area of the flap was determined as described (Isenberg et al., Blood. Nov. 2, 2006) Animals were then euthanized and flaps excised, fixed in 10% paraformaldehyde and processed for histology.
Random myocutaneous flap wound beds and/or ischemic hindlimb vastus medialis muscle was assessed at indicated time points (72 hours or 7 days post-operatively) for visible alterations in vascularity under 5× magnification. An arbitrary though strictly applied definition of countable vessels was employed to highlight both individual vessels and vascular ramifications. In any given vascular plexus visible by 5× magnification a vessel was defined as that segment traversing two branches. Visible vessels without ramifications and branches were counted once. Treatment status and genetic background of tissue images was not known by the reviewer.
Animals underwent creation of a random myocutaneous (McFarlane) flap as previously described (Isenberg et al., Blood 109:1945-1952, 2007). Some animals received either ISDN (1 mg/mL) or L-NAME (0.5 mg/ml) ad libitum in the drinking water during the post-operative interval.
Flap soft tissue units and underling wound beds were injected with control vehicle (normal saline), a CD47 morpholino or a control morpholino (10 μM) in sterile saline. Flap survival was determined as described.

Data set [2] relates to white hairless Yucatan miniature pig VSMC. Put plainly: Intracellular cGMP in porcine VSMC. Type of data set: cell-based. As for the experimental part:
White hairless Yucatan miniature pig VSMC were plated onto culture plates (Nunc, Roskilde, Denmark) at a the indicated cell density in smooth muscle cell growth medium+2% FCS and cultured until approximately 90% confluent. Cultured cells were treated according to the recommendation of the manufacturer with morpholinos (10 μM) and delivery agent (Endoporter® 6 μl/ml) and used within 48 hours of treatment.
White hairless Yucatan miniature pig VSMC (10^4 cells/well) grown overnight in 12-well culture in SM-GM containing 2% FCS and then weaned off serum over 48 h before treatment with NO donors and other agents in serum/additive free medium+0.1% BSA. Intracellular cGMP levels were determined using an enzyme immunoassay (Amersham, GE Health Care, UK).

[3] abbreviates: WT mice 14-18 months, injected to flap and wound bed.
[4] abbreviates: wild type flaps, local injection, day 7.
The mark [5] stands for this setting: wild type flaps, morpholino 10 μM.

As to “CGTCACAGGCAGGACCCACTGCCCA (all phosphorodiamidate morpholino (PMO)) [CD47 morpholino]”, the “TSP1 block of NO relaxation of FCS-induced gel contraction” value in the data set on HAVSMC is recorded as “TSP1 was not able to block this relaxation”. Moreover, the “CD47 expression (Western)” value in the data set on CD47 was “Effective dose-dependent suppression of CD47”. In the data set on human aortic VSMC, the “TSP1 inhibition of NO-driven cGMP accumulation” value is “essentially blind to the inhibitory effects of TSP1”. The flap tissue survival was 84±7% in data set [1] (ApoE-null mice 12-16 months, high fat diet, day 7); 91±4% in data set [1] (setting [3]); about 100% in data set [1] (setting [4]). The flap mitochondrial viability result in data set [1] (aged WT flaps) is recorded as “markedly increased”. The “remodeling of collateral flap vessels” value in data set [1] (aged WT flaps) is “substantial remodeling of existing collateral flap vessels”. Further, in data set [1] (setting [5]), the “CD47 immunohistochemical staining of flaps” value is on record as “decreased protein staining”. Further, in data set [1] (setting [5]), the wound bed vascularity result was “substantial increases in visible blood vessels”. Also, the “ability of TSP1 to suppress NO-stimulated cGMP after pretreatment” value in data set [2] (porcine VSMC, TSP1 2.2 nM) is “resistant to suppression by TSP1”. Further, the “basal cGMP levels” value in data set [2] (resting porcine VSMC) is recorded as “elevated”.
As for “CGTgACAGcCAcGACCgACTGCgCA (antisense CGTGACAGCCACGACCGACTGCGCA; all phosphorodiamidate morpholino (PMO)) [control morpholino, reference compound]”, the “TSP1 block of NO relaxation of FCS-induced gel contraction” value in the data set with HAVSMC is recorded as “remained sensitive to TSP1 inhibition”. Further, the “CD47 expression (Western)” value with CD47 was “did not show suppression of CD47”. In addition, in the data set on human aortic VSMC, the “TSP1 inhibition of NO-driven cGMP accumulation” value was “retained sensitivity to inhibition”. Besides, the flap tissue survival result in data set [1] (setting [3]) is “degrees of tissue necrosis comparable to untreated aged WT animals”; in data set [1] (setting [4]), “necrosis comparable to that for untreated wild type flaps”.
As for “TSP1: thrombospondin-1 prepared from human platelets”, in the data set with HAVSMC (HAVSMC, DETA/NO 10 μM, TSP1 2.2 nM), the “inhibitory activity of NO on gel contraction” value was “completely abrogated”. Further, in the data set on human aortic VSMC (untreated VSMC), the “NO-driven cGMP flux” value is “complete inhibition of an NO-driven cGMP flux”. Also, the “NO-stimulated increase in cGMP” value in data set [2] (control and mismatch treated porcine VSMC, TSP1 2.2 nM) is listed as “blocked the increase in cGMP”.
